The test concerns the target CgiNAP2X1 (Magallana gigas, UniProt A0A8W8INI3). The experiment in a line: stopped-flow CO2 hydration assay. The format is biochemical.
[1] abbreviates: read-out: KIs [mM] ^2 / CgiNAP2X1.

Read-outs that look alike come from different tables or passages of the source.

Chain of CgiNAP2X1 (A0A8W8INI3 23-318 limits assumed): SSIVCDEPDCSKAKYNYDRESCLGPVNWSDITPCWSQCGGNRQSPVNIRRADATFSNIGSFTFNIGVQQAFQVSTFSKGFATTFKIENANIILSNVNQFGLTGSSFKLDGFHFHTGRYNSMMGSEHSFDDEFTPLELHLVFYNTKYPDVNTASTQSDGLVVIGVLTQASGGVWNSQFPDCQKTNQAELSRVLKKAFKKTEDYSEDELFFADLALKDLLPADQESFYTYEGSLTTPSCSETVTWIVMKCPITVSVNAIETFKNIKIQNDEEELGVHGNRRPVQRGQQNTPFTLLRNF

In the case of `O=S(=O)(O)C(F)(F)F` [CF3SO3^−], the Ki was 8.68 mM.
The same measure, in the same setting: as for `N#CO` [CNO^−], the figure is 3.11 mM; as for `Cl` [Cl^−], 10.8 mM.
`S` [HS^−] yielded a Ki of 8.19 mM.
On the same count and under the same terms, as for `I` [I^−], the figure is 8.86 mM.
`O=NO` [NO2^−]: the Ki came out at 7.14 mM.
On the same count and under the same terms, the result for `N#CS` [SCN^−] reads 5.88 mM; that for `N#C[SeH]` [SeCN^−], 8.21 mM; that for `[O]=[Sn]([OH])[OH]` [SnO3^2−], 3.47 mM.
For the compound `OB(O)c1ccccc1` [phenylboronic acid], the Ki was 0.072 mM.
Consider `NS(=O)(=O)O` [sulfamate], for which, under setting [1], the Ki is 0.073 mM.
On the same count and under the same terms, as for `NS(N)(=O)=O` [sulfamide], the figure is 0.076 mM.

Values taken from article PMC5618409, “Sequence Analysis, Kinetic Constants, and Anion Inhibition Profile of the Nacrein-Like Protein (CgiNAP2X1) from the Pacific Oyster Magallana gigas (Ex-Crassostrea gigas)” (Marine Drugs, 2017).
